≈ marks a conversion by molar mass, not a printed value.
How the values were obtained:
[1] = tested on: DT-C cells (pGV-P-transfected v-ki-ras-transformed NIH3T3 cells); assay: Luciferase activity in control DT-C cells (IC50-C): non-specific transcription-inhibitory effect or cytotoxicity; format: cell-based, mouse; settings: tested concentration nearest to 50% inhibition in DT-C cells; index of non-specific transcription inhibition or cytotoxicity
From the text: Test Example 1 Inhibitory Effect Against Cellular Signaling Derived From Ras Oncogene Products
1) Establishment of Cell Lines Used in Assay
Based on the reporter plasmid (pGV-P (Toyo Ink, Japan)), in which luciferase gene was ligated to SV40-derived minimal promoter, we constructed a plasmid designated pRRE3-luc by inserting 3 copies of chemically synthesized oligonucleotides (Sequence: CAGGATATGACTCT, derived from mouse NVL-3 (M. A. Reddy et al.(1992)Mol. Endocrinol., 6, 1051)) into upstream of the promoter. v-ki-ras-transformed NIH3T3 cells (DT cells, provided by Dr. Makoto Noda (Kyoto Univ., School of medicine)) were transfected with this plasmid by liposome-mediated transfection and transfected cell lines stably incorporated and maintained each plasmid were obtained. We named pGV-P and pRRE3-transfected cell line as DT-C and DT-R, respectively and used in the assay described below.
2) Preparation of Samples
i) All the cell lines were cultured in Dulbecco's Modified Essential Medium (DMEM: 10% Fetal Calf Serum(FCS: Hyclone, USA)) including […] kanamycin (Meiji Seika, Japan) in humidified incubator under condition of 5% CO2 at 37° C.
ii) DT-C and DT-R cells were seeded at 2500 cells/well into flat-bottom 96 well multiplate (Sumitomo bakelite) and incubated for 24 hours.
iii) Test compounds were prepared as 1 mg/ml DMSO solution.
iv) The solution of test compounds were added to the culture. Tested compounds are used at the concentration from […] to 0.51 ng/ml with by 3-fold dilution.
v) After 24 hours, the culture supernatant was completely aspirated and […] of cell-lysing solution (PGC-50 (Toyo Ink, Japan)) was added before cells were dried up. In order to the cells were lysed completely, multiwell plates were left at room temperature for 10 to 30 min. The plates were wrapped up and stored at −20° C. till the day of measurement.
3) Measurement of Samples
i) Melt the samples by putting 96 well multiplate at 37° C. and add 90 μl/well 25 mM Tris (pH 7.5).
ii) Transfer 50 μl of the sample (110 μl) to the 96 well microplate for measurement (Microlite 1 (Dynatech)).
iii) Measure the samples by the luminometer, LUMINOUS CT9000D (Dia-Yatron, Japan). We used Pickagene luminescence kit PGL2000 or LT2.0 (Toyo Ink, Japan) as substrates for luminescence measurement (50 μl/well).
4) Judgment of the Results
i) The luciferase activity of DT-C cells and DT-R cells were plotted in the graph where the relative activity and the compound concentration were expressed as Y-axis and X-axis, respectively. We judged by the degree of dissociation between the activities of DT-C cells and DT-R cells as an index.
ii) Concretely, efficacy of the compound was expressed by two values described below.
b) Among the points of concentration tested, the concentration which is the nearest to 50% inhibition concentration at DT-C cells (IC50-C), was shown as an index of non-specific transcription-inhibitory effect or of cytotoxicity. In case of positive compounds, 50% inhibition concentration above the area of active concentration in DT-C cells was expressed as IC50-C.

[2] = tested on: DT-R cells (pRRE3-luc-transfected v-ki-ras-transformed NIH3T3 cells); signal derived from Ras oncogene products; assay: Inhibitory effect against cellular signaling derived from Ras oncogene products: luciferase reporter, dissociation of DT-R from DT-C activity (MAC); format: cell-based, mouse; settings: minimal tested concentration at which luciferase activities of DT-C cells and DT-R cells dissociated
How it was run: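 Value is a minimal active concentration: lowest dose where Ras-responsive reporter (DT-R) luciferase diverges from SV40-minimal-promoter control (DT-C). Both transfected v-Ki-ras NIH3T3 lines received 3-fold serial dilutions for 24 h at 37 °C in 10% FCS medium before lysis and luminometry.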

[3] = tested on: human lung adenocarcinoma A549; assay: In vitro cell growth inhibition test, MTT assay; format: cell-based; settings: MTT assay 4 days after compound addition
How it was run: (§1)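 Panel of human carcinoma lines, including PANC-1, assessed in vitro; inhibition of cell growth quantified via MTT.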

[4] = tested on: human squamous lung cancer Ma44; assay: In vitro cell growth inhibition test, MTT assay; format: cell-based; settings: MTT assay 4 days after compound addition
How it was run: as §1

[5] = tested on: human squamous lung cancer RERF-RC-AI; assay: In vitro cell growth inhibition test, MTT assay; format: cell-based; settings: MTT assay 4 days after compound addition
How it was run: as §1

human colon cancer HT29 = assay: In vitro cell growth inhibition test, MTT assay; format: cell-based; settings: MTT assay 4 days after compound addition
How it was run: as §1

[6] = tested on: human pancreas cancer PANC-1; assay: In vitro cell growth inhibition test, MTT assay; format: cell-based; settings: MTT assay 4 days after compound addition
How it was run: as §1

Structure (SMILES)	IC50-C [1] [µg/mL]	MAC (Minimal Active Concentration) [2] [µg/mL]	IC50, A549 [3] [µg/mL]	IC50, Ma44 [4] [µg/mL]	IC50, RERF-LC-AI [5] [µg/mL]	IC50, HT29 (human colon cancer HT29) [µg/mL]	IC50, PANC-1 [6] [µg/mL]
CCNC(=Nc1nc(C)ncc1CSc1nnc(-c2ccccc2N)o1)NCC [Compound A-24]	3.33 (≈ 8.07 µM)	0.0137	0.026 (≈ 0.063 µM)	0.028 (≈ 0.0679 µM)	0.0071 (≈ 0.0172 µM)		
CCNC(=Nc1nc(C)ncc1CSc1nnc(-c2ccccc2NC(=O)CC)o1)NCC [Compound A-26]	>10	0.370	0.06 (≈ 0.128 µM)	0.055 (≈ 0.117 µM)	0.016 (≈ 0.0341 µM)		
CCCNC(=Nc1nc(C)ncc1CSc1nnc(-c2ccccc2N)o1)NCC [Compound A-36]	3.33 (≈ 7.81 µM)	0.0412		0.026 (≈ 0.061 µM)	0.0072 (≈ 0.0169 µM)	0.015 (≈ 0.0352 µM)	0.014 (≈ 0.0328 µM)
CCNC(=Nc1nc(CC)ncc1CSc1nnc(-c2ccccc2N)o1)NCC [Compound A-37]	3.33 (≈ 7.81 µM)	0.0412		0.24 (≈ 0.563 µM)	0.021 (≈ 0.0492 µM)	0.03 (≈ 0.0703 µM)	0.025 (≈ 0.0586 µM)
CCNC(=Nc1nc(C)ncc1CSc1nnc(-c2ccc(Cl)cc2N)o1)NCC [Compound A-44]	3.33 (≈ 7.45 µM)	<0.000508		0.018 (≈ 0.0403 µM)	0.0061 (≈ 0.0136 µM)	0.0061 (≈ 0.0136 µM)	0.16 (≈ 0.358 µM)
CCNC(=Nc1nc(C)ncc1CSc1nnc(-c2c(N)cccc2F)o1)NCC [Compound A-51]	3.33 (≈ 7.73 µM)	0.123		0.088 (≈ 0.204 µM)	0.012 (≈ 0.0279 µM)	0.028 (≈ 0.065 µM)	
CCNC(=Nc1nc(C)ncc1CSc1nnc(-c2ccc(F)cc2NC(C)=O)o1)NCC [Compound A-60]	>10	<0.000508		0.012 (≈ 0.0254 µM)	0.004 (≈ 0.00846 µM)		0.0039 (≈ 0.00825 µM)
CCNC(=Nc1nc(C)ncc1CSc1nnc(-c2ccc(Cl)cc2NC(C)=O)o1)NCC [Compound A-61]	>10	<0.000508		0.016 (≈ 0.0327 µM)	0.0041 (≈ 0.00838 µM)		0.0063 (≈ 0.0129 µM)
CCNC(=Nc1nc(C)ncc1CSc1nnc(-c2ccc(C)cc2N)o1)NCC [Compound A-63]	3.33 (≈ 7.81 µM)	0.0412		0.053 (≈ 0.124 µM)	0.006 (≈ 0.0141 µM)		0.0087 (≈ 0.0204 µM)
CCNC(=Nc1ncncc1CSc1nnc(-c2ccc(F)cc2)o1)NCC [Compound A-110]	>10	0.123	0.042 (≈ 0.105 µM)	0.063 (≈ 0.157 µM)	0.006 (≈ 0.0149 µM)	0.0077 (≈ 0.0192 µM)	
CCNC(=Nc1ncncc1CSc1nnc(-c2ccc(N)cc2)o1)NCCOC(C)=O [Compound A-112]	>10	1.11	0.38 (≈ 0.832 µM)	2 (≈ 4.38 µM)	0.023 (≈ 0.0504 µM)	0.064 (≈ 0.14 µM)	
CCNC(=Nc1ncncc1CSc1nnc(-c2ccc(C(N)=S)cc2)o1)NCC [Compound A-123]	>10	1.11	0.15 (≈ 0.339 µM)	0.09 (≈ 0.203 µM)	0.034 (≈ 0.0768 µM)	0.041 (≈ 0.0926 µM)	
CCNC(=Nc1ncncc1CSc1nnc(-c2ccc([N+](=O)[O-])cc2OC)o1)NCC [Compound A-124]	>10	0.0137	0.026 (≈ 0.0567 µM)	0.024 (≈ 0.0523 µM)	0.022 (≈ 0.048 µM)	0.028 (≈ 0.0611 µM)	
CCNC(=Nc1nc(CC)ncc1CSc1nnc(-c2ccc(N)cc2)o1)NCC [Compound A-154]	>10	0.0412		0.04 (≈ 0.0938 µM)	0.008 (≈ 0.0188 µM)	0.012 (≈ 0.0281 µM)	0.018 (≈ 0.0422 µM)
CCCNC(=Nc1ncncc1CSc1nnc(-c2ccc([N+](=O)[O-])cc2)o1)NCCC [Compound A-155]	3.33 (≈ 7.29 µM)	0.00457		0.009 (≈ 0.0197 µM)	0.006 (≈ 0.0131 µM)	0.08 (≈ 0.175 µM)	0.009 (≈ 0.0197 µM)
CCNC(=Nc1ncncc1CSc1nnc(-c2ccsc2)o1)NCC [Compound D-21]	>10	0.37	0.049 (≈ 0.126 µM)	0.35 (≈ 0.899 µM)	0.013 (≈ 0.0334 µM)	0.016 (≈ 0.0411 µM)	
CCNC(=Nc1ncncc1CSc1nnc(-c2ccc(C)nc2)o1)NCC [Compound D-29]	>10	1.11	0.22 (≈ 0.552 µM)	0.52 (≈ 1.3 µM)	0.11 (≈ 0.276 µM)	0.09 (≈ 0.226 µM)	
CCNC(=Nc1ncncc1CSc1nnc(-c2ccoc2)o1)NCC [Compound D-30]	>10	1.11	0.1 (≈ 0.268 µM)	2.4 (≈ 6.43 µM)	0.046 (≈ 0.123 µM)	0.033 (≈ 0.0884 µM)	
CCNC(=Nc1nc(C)ncc1CSc1nnc(-c2ccsc2NC(C)=O)o1)NCC [Compound D-36]	>10	0.0412	0.032 (≈ 0.0695 µM)	0.065 (≈ 0.141 µM)	0.023 (≈ 0.0499 µM)	0.049 (≈ 0.106 µM)	
